Test results published in patent publication US5627199A, “6-heterocyclic-4-amino-1,2,2A,3,4,5-hexahydrobenz [CD] indoles” (ELi Lilly and Company, priority 1995, dated 1997).
Structures can show the parent of a compound that is named as a salt.

Experiments:
[1] = target: 5-HT1D receptor; test: 5-HT1D receptor in vitro binding ([3H]5-HT, bovine caudate membranes); conditions: inhibition of [3H]5-HT (1.7-1.9 nM) binding by 50%, 8-OH-DPAT and mesulergine (100 nM each) as masks, pH 7.4, 10 min at 37° C.
Experimental: The affinities of certain of the compounds of Formula 1 at the central 5-HT1D binding sites were determined using a modification of the binding assay described by Heuring and Peroutka, J. Neurosci., 7, 894 (1987). Bovine brains were obtained and the caudate nuclei were dissected out and frozen at -70° C. until the time that the membranes were prepared for the binding assays. At that time the tissues were homogenized in 40 volumes of ice-cold Tris-HCl buffer (50 mM, pH 7.4 at 22° C.) with a Techmar Tissumizer (setting 65 for 15 sec), and the homogenate was centrifuged at 39,800× g for 10 minutes. The resulting pellet was then resuspended in the same buffer, and the centrifugation and resuspension process was repeated three additional times to wash the membranes. Between the second and third washes the resuspended membranes were incubated for 10 minutes at 37° C. to facilitate the removal of endogenous 5-HT. The final pellet was resuspended in the buffer to a concentration of 25 mg of original tissue wet weight/ml for use in the binding assay. […] The assay tubes were incubated for 10 minutes at 37° C. and the contents were then rapidly filtered through GF/B filters (pretreated with 0.5% polyethylenimine), followed by four 1 ml washes with ice-cold buffer. The radioactivity trapped by the filters was quantitated by liquid scintillation spectrometry, and specific [^3 H]5-HT binding to the 5-HT1D sites was defined as the difference between [^3 H]5-HT bound in the presence and absence of 10 μM 5-HT.
In Table 2, the first column provides the Example Number of the compound evaluated while the second column provides the amount of test compound (expressed in nanomolar concentration) required to inhibit the binding of [^3 H]5-HT by 50% (indicated as IC50).

[2] = target: T1, 5-HT1A receptor (Rattus norvegicus, UniProt P19327); test: 5-HT1A receptor in vitro binding ([3H]8-OH-DPAT, rat hippocampal membranes); parameters: species or system male Sprague-Dawley rats; conditions: inhibition of [3H]8-OH-DPAT (1.0 nM) binding by 50%, pH 7.4, 10 min at 37° C.
T1 construct: the brains were rapidly chilled and dissected to obtain the hippocampi; from tissue; host or cells: hippocampal membranes of male Sprague-Dawley rats
T1 sequence (P19327 1-422): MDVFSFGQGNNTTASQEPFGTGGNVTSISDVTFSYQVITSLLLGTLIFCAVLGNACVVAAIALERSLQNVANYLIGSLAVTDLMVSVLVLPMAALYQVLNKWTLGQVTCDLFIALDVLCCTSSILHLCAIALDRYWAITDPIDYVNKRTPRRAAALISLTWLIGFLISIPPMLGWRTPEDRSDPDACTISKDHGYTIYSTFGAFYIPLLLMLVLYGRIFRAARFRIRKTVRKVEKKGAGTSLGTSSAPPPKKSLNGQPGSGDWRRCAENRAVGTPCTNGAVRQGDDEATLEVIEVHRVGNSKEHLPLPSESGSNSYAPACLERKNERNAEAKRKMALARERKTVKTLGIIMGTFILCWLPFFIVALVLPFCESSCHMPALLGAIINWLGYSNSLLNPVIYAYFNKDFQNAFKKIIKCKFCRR
Experimental: The affinities of certain of the compounds of Formula 1 at the central 5-HT1A receptors were determined using a modification of the binding assay described by Taylor et al., J. Pharmacol. Exp. Ther. 236, 118-125 (1986). Membranes for the binding assay were prepared from male Sprague-Dawley rats (150-250 g). The animals were killed by decapitation, and the brains were rapidly chilled and dissected to obtain the hippocampi. Membranes from the hippocampi were either prepared that day, or the hippocampi were stored frozen (-70° C.) until the day of preparation. The membranes were prepared by homogenizing the tissue in 40 volumes of ice-cold Tris-HCl buffer (50 mM, pH 7.4 at 22° C.) using a Techmar Tissumizer (setting 65 for 15 sec), and the homogenate was centrifuged at 39800× g for 10 minutes. The resulting pellet was then resuspended in the same buffer, and the centrifugation and resuspension process was repeated three additional times to wash the membranes. Between the second and third washes the resuspended membranes were incubated for 10 minutes at 37° C. to facilitate the removal of endogenous ligands. The final pellet was resuspended in 67 mM Tris-HCl, pH 7.4, to a concentration of 2 mg of tissue original wet weight/200 μl. This homogenate was stored frozen (-70° C.) until the day of the binding assay. […] The assay tubes were incubated for 10 minutes at 37° C. and the contents were then rapidly filtered through GF/B filters (pretreated with 0.5% polyethylenimine), followed by four 1 ml washes with ice-cold buffer. The radioactivity trapped by the filters was quantitated by liquid scintillation spectrometry, and specific [^3 H]8-OH-DPAT binding to the 5-HT1A sites was defined as the difference between [^3 H]8-OH-DPAT bound in the presence and absence of 10 μM 5-HT.
In Table 1, the first column provides the Example Number of the compound evaluated while the second column provides the amount of test compound (expressed in nanomolar concentration) required to inhibit the binding of [^3 H]8-OH-DPAT by 50% (indicated as IC50).

IC50 [1] | IC50 [2] | Compound
43.1 nM | 5.3 nM | CCCN(CCC)[C@H]1Cc2c(-c3ccco3)ccc3c2[C@@H](CN3)C1 [Example 14, (+)(2aS,4R)-6-(2-furyl)-4-(di-n-propylamino)-1,2,2a,3,4,5-hexahydrobenz[cd]indole]
1890 nM | 21.1 nM | CCCN(CCC)[C@@H]1Cc2c(-c3ccco3)ccc3c2[C@H](CN3)C1 [Example 13, (-)(2aR,4S)-6-(2-furyl)-4-(di-n-propylamino)-1,2,2a,3,4,5-hexahydrobenz[cd]indole]
– | 105 nM | CCCN(CCC)[C@@H]1Cc2c(-c3nc(-c4ccccc4)no3)ccc3c2[C@H](CN3)C1 [Example 12, (2aR,4S)-6-(3-phenyl-1,2,4-oxadiazol-5-yl)-4-(di-n-propylamino)-1,2,2a,3,4,5-hexahydrobenz[cd]indole]
19.4 nM | 2.74 nM | CCCN(CCC)[C@H]1Cc2c(-c3ccoc3)ccc3c2[C@@H](CN3)C1 [Example 15, (+)(2aS,4R)-6-(3-furyl)-4-(di-n-propylamino)-1,2,2a,3,4,5-hexahydrobenz[cd]indole]
40.3 nM | 1.92 nM | CCCN(CCC)[C@H]1Cc2c(-c3cccnc3)ccc3c2[C@@H](CN3)C1 [Example 18, (+)(2aS,4R)-6-(3-pyridyl)-4-(di-n-propylamino)-1,2,2a,3,4,5-hexahydrobenz[cd]indole]
163 nM | 17.3 nM | CCCN(CCC)[C@H]1Cc2c(-c3ccccn3)ccc3c2[C@@H](CN3)C1 [Example 17, (+)(2aS, 4R)-6-(2-pyridyl)-4-(di-n-propylamino)-1,2,2a,3,4,5-hexahydrobenz[cd]indol]

Further lines, the molecule ahead of its results:

Compound | IC50 [1] | IC50 [2]
CCCN(CCC)[C@H]1Cc2c(-c3cc[nH]n3)ccc3c2[C@@H](CN3)C1 [Example 6, (+)(2aS,4R)-6-(3-pyrazolyl)-4-(di-n-propylamino)-1,2,2a,3,4,5-hexahydrobenz[cd]indole.2HCL] | 30 nM | 6.37 nM
CCCN(CCC)[C@@H]1Cc2c(-c3ccno3)ccc3c2[C@H](CN3)C1 [Example 11, (-)(2aR,4S)-6-(5-isoxazolyl)-4-(di-n-propylamino)-1,2,2a,3,4,5-hexahydrobenz[cd]indole.2 HCl] | 1380 nM | 2.08 nM
CCCN(CCC)C1Cc2c(-c3ccno3)ccc3c2C(CN3)C1 (racemic) [Example 7, (±)-6-(5-isoxazolyl)-4-(di-n-propylamino)-1,2,2a,3,4,5-hexahydrobenz[cd]indole.2HCl] | 23.6 nM | 1.95 nM
CCCN(CCC)[C@H]1Cc2c(-c3ccno3)ccc3c2[C@@H](CN3)C1 [Example 10, (+)(2aS, 4R)-6-(5-isoxazolyl)-4-(di-n-propylamino)-1,2,2a,3,4,5-hexahydrobenz[cd]indole.2 HCl] | 11.2 nM | 0.73 nM
CCCN(CCC)[C@H]1Cc2c(-c3ccon3)ccc3c2[C@@H](CN3)C1 [Example 8, (+)(2aS,4R)-6-(3-isoxazolyl)-4-(di-n-propylamino)-1,2,2a,3,4,5-hexahydrobenz[cd]indole.2 HCl] | 9.12 nM | 0.91 nM
